Experimental data taken from patent US12306194B2, “Reagent for fluorescence imaging of lipid droplets in cell and tissue” (NATIONAL UNIVERSITY CORPORATION GUNMA UNIVERSITY, priority 2019, dated 2025).

Experiments:
[1] = Measurement of fluorescence lifetime in solvents; type: physicochemical
Protocol: The fluorescence lifetime (τf) of each compound in each solvent was measured using a compact fluorescence lifetime measurement apparatus (Quntaurus-Tau, manufactured by Hamamatsu Photonics K.K.).

[2] = Solubility / precipitation in water (physiological saline); type: physicochemical
[3] = test system: lipid droplets in the liver; test: Fluorescence intensity and lifetime imaging of liver lipid droplets in normal and fatty-liver model mice; type: in vivo, mice (C57BL/6J)
Protocol: Fluorescence imaging of lipid droplets in a body tissue, and of an adipose tissue, using PC6S is described below. […] Therefore, PC6S cannot be administered to mice. In view of this, 5 mM stock solution was added (at 10% in terms of the volume ratio) to physiological saline supplemented with 10% bovine serum albumin. […] Regarding administration of MNs-NB, a stock solution in DMSO is directly administered to mice. Since administration of DMSO may cause death of mice from shock, the administration method in the present invention is thought to be a safer method. Here, 100 to 200 μL of 500 μM solution (50 to 100 nmol) was administered to the tail vein of a mouse under anesthesia, and a fluorescence imaging experiment was carried out using a confocal laser microscope (excitation wavelength, 488 nm; monitoring wavelength, 510 to 560 nm). In the present experiment, a microscope capable of acquiring fluorescence lifetime images as well as fluorescence intensity images (FLIM: fluorescence lifetime imaging microscope) (Simple-Tau-150-DX; Becker & Hickl) was used. The animal experiment was carried out in accordance with the animal experiment safety regulations in Gunma University.
Fatty-liver model mice are known to have a liver containing a larger amount of lipid droplets accumulated therein compared to normal mice. Here, fatty-liver model mice were prepared by feeding mice (C57BL/6J) with an ultra-high-fat, choline-deficient, methionine-reduced diet for 2 weeks or 10 weeks. […] Furthermore, in the mouse fed with the fatty diet for 10 weeks, intense fluorescence was found from structures having shapes different from those of lipid droplets, in addition to the fluorescence from lipid droplets. This is thought to be autofluorescence due to infiltration of macrophage-derived cells caused by liver fibrosis.

[4] = test system: lipid droplets in a body tissue and adipose tissue; test: Non-laparotomic imaging of lipid droplets in a fatty-liver model nude mouse; type: in vivo; settings: 50 nmol, tail vein
Protocol: Non-laparotomic imaging of lipid droplets in a body tissue, and of an adipose tissue, using PC6S is described below. A nude mouse was fed with a high-fat diet for 2 weeks to prepare a fatty-liver model mouse. PC6S (50 nmol) was administered from the tail vein of the nude mouse under anesthesia. Images were taken using a simple in vivo imaging device (Discovery (registered trademark); INDEC BioSystem) (for the nude mice lying on its back). An excitation wavelength of 450 to 490 nm and a monitoring wavelength of 520 nm or higher were employed. […] In order to confirm that the fluorescence was found from the liver, an image was taken after laparotomy. […] It was thus shown that the fluorescence imaging reagent of the present invention is useful even without laparotomy.

In the case of CCN(CC)c1ccc2cc3cc(-c4nc5ccccc5s4)c(=O)oc3cc2c1 [PC6S, 3-(Benzo[d]thiazol-2-yl)-8-(diethylamino)-2H-benzo[g]chromen-2-one], the “τf (fluorescence lifetime)” value ([1]; in Bu2O (dibutyl ether)) is reported as 2.91 ns, the “τf (fluorescence lifetime)” value ([1]; in DMSO) is reported as 3.46 ns and the “τf (fluorescence lifetime)” value ([1]; in EtOAc) is reported as 3.41 ns. The “τf (fluorescence lifetime)” value ([1]; in MeCN) was 3.72 ns, the “τf (fluorescence lifetime)” value ([1]; in n-Hexane) was 2.55 ns and the “solubility in water (physiological saline)” value [2] was “remarkably low solubility”. For the same molecule, the precipitation ([2]; 5 mM stock solution added at 10% volume ratio to physiological saline supplemented with 10% bovine serum albumin) was “precipitation of PC6S could be suppressed”, the precipitation ([2]; 5 mM stock solution in DMSO added at 10% volume ratio to physiological saline) was “precipitation of PC6S occurs” and the “lipid droplet imaging of liver surface” value ([3]; 100 nmol, tail vein, fatty-liver model mouse (Week 2)) was “large lipid droplets were imaged over the entire liver surface”. The “lipid droplet imaging of liver surface” value ([3]; 100 nmol, tail vein, mouse fed with a normal diet) was “small lipid droplets could be found in hepatocytes”, the “fluorescence lifetime imaging of liver surface” value ([3]; 100 nmol, tail vein, mouse fed with the fatty diet for 10 weeks) was “capable of distinguishing between the autofluorescence (blue) and the PC6S fluorescence (orange)” and the “Imaging of lipid dropletts in a tissue” value ([3]; summary grade, Table 3) was “⊚”. For the same molecule, the laparotomic imaging ([4]; after laparotomy) was “Fluorescence derived from PC6S was found in the liver” and the non-laparotomic imaging ([4]; without laparotomy) was “Fluorescence derived from PC6S was found around the liver”.
